ChEMBL document CHEMBL5550146, “Design, synthesis, and biological evaluation of novel sesquiterpene lactone derivatives as PKM2 activators with potent anti-ulcerative colitis activities” (Eur J Med Chem, 2024)
pIC50: −log10 of the molar value. Active and inactive are the calls of the source. The rule behind the calls is not given here.

Key:
[1] = target: Pyruvate kinase PKM (Homo sapiens, UniProt P14618); assay: Activation of recombinant human PKM2 incubated for 40 mins by pyruvate kinase assay
Chain of Pyruvate kinase PKM (P14618 whole entry): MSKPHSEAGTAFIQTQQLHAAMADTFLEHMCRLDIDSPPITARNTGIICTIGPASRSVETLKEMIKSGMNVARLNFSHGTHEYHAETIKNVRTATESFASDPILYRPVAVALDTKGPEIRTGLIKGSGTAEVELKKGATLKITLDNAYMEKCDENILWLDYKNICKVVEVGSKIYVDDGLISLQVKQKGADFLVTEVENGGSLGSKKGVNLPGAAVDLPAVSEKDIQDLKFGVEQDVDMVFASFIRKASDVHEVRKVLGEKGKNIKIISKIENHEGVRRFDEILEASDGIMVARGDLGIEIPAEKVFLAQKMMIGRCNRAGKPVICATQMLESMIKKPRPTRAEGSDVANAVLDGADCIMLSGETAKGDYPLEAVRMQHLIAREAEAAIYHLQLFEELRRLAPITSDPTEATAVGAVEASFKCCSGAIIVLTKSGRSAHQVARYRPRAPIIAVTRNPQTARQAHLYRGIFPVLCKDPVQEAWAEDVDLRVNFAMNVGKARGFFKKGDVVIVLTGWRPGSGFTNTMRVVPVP

[2] = system: T-cell; assay: Antiproliferative activity against concanavalin A-stimulated C57BL/6 mouse T cells measured after 48 hrs by CCK8 assay; assay type: functional, cell-based; conditions: C57BL/6, T-cell
[3] = system: Mus musculus; assay: Antiinflammatory activity in DSS-induced colitis female C57BL/6 mouse model assessed as reduction in shortening of colon length at 200 mg/kg, ip administered for 12 days with subsequent treatment of DSS for 9 days followed by drinking water for 3 days; assay type: functional, organism-based; conditions: time 12.0 day

SMILES | AC50 [1] [nM] | pIC50 [2] | Activity [3]
C=C1C(=O)O[C@H]2[C@H]1CC/C(CO)=C\CC[C@@]1(C)O[C@@H]21 | 867 | 5.80 | 
COc1ccc(/C=C2/C(=O)O[C@H]3[C@H]2CC/C(C)=C/CC[C@@]2(C)O[C@@H]32)cc1 |  | 5.34 | 
C=C1C(=O)O[C@H]2[C@H]1CC/C(CNS(=O)(=O)C1CC1)=C\CC[C@@]1(C)O[C@@H]21 | > 3000 | 5.58 | 
C=C1C(=O)O[C@H]2[C@H]1CC/C(CNS(=O)(=O)CC)=C\CC[C@@]1(C)O[C@@H]21 | > 3000 | 5.53 | 
Nc1ccc(O)c(C(=O)O)c1 |  |  | Active
C=C1C(=O)O[C@H]2[C@H]1CC/C(COC(=O)NCCN(CC)CC)=C\CC[C@@]1(C)O[C@@H]21 | > 3000 | 5.60 | 
C=C1C(=O)O[C@H]2[C@H]1CC/C(C=O)=C\CC[C@@]1(C)O[C@@H]21 |  | < 5.00 | 
C=C1C(=O)O[C@H]2[C@H]1CC/C(COC(=O)NOC)=C\CC[C@@]1(C)O[C@@H]21 | > 3000 | 5.63 | 
C=C1C(=O)O[C@H]2[C@H]1C[C@@H](O)/C(C)=C/CC[C@@]1(C)O[C@@H]21 |  | 5.46 | 
C=C1C(=O)O[C@H]2[C@H]1C[C@@H](Br)/C(C)=C/CC[C@@]1(C)O[C@@H]21 |  | 5.42 | 
C=C1C(=O)O[C@H]2[C@H]1CC/C(COC(=O)N(C)C)=C\CC[C@@]1(C)O[C@@H]21 | 1570 | 5.79 | 
C/C1=C\CC[C@@]2(C)O[C@H]2[C@H]2OC(=O)/C(=C/c3cccc4ccccc34)[C@@H]2CC1 |  | 5.34 | 
C=C1C(=O)O[C@H]2[C@H]1CC/C(CNS(=O)(=O)c1ccc([N+](=O)[O-])cc1)=C\CC[C@@]1(C)O[C@@H]21 | 966 | 5.88 | 
C=C1C(=O)O[C@H]2[C@H]1C[C@@H](F)/C(C)=C/CC[C@@]1(C)O[C@@H]21 | > 3000 | 5.63 | 
C/C1=C\CC[C@@]2(C)O[C@H]2[C@H]2OC(=O)/C(=C/c3ccccc3)[C@@H]2CC1 |  | 5.37 | 
C=C1C(=O)O[C@H]2[C@H]1CC/C(COC(=O)N1CCN(C)CC1)=C\CC[C@@]1(C)O[C@@H]21 | 567 | 5.98 | 
C=C1C(=O)O[C@H]2[C@H]1CC/C(COC(=O)NCCN(C)C)=C\CC[C@@]1(C)O[C@@H]21 | > 3000 | 5.54 | 
C=C1C(=O)O[C@H]2[C@H]1CC/C(COC(=O)N1CCN(CC)CC1)=C\CC[C@@]1(C)O[C@@H]21 | > 3000 | 5.63 | 
C=C1C(=O)O[C@H]2[C@H]1CC/C(COC(=O)N1CCCC1)=C\CC[C@@]1(C)O[C@@H]21 | 736 | 5.75 | 
C=C1C(=O)O[C@H]2[C@H]1CC/C(CNS(=O)(=O)c1ccc(OC)cc1)=C\CC[C@@]1(C)O[C@@H]21 | 492 | 5.98 | 
C=C1C(=O)O[C@H]2[C@H]1CC/C(C(=O)O)=C\CC[C@@]1(C)O[C@@H]21 |  | < 5.00 | 

The next lines start with results.

AC50 [1] [nM] | SMILES | pIC50 [2] | Activity [3]
1230 | C=C1C(=O)O[C@H]2[C@H]1CC/C(CNS(=O)(=O)c1ccc(F)cc1)=C\CC[C@@]1(C)O[C@@H]21 | 5.82 | 
2220 | C=C1C(=O)O[C@H]2[C@H]1CC/C(COC(=O)NCC)=C\CC[C@@]1(C)O[C@@H]21 | 5.77 | 
1060 | C=C1C(=O)O[C@@H]2C3O[C@]3(C)CC/C=C(\C)CC[C@@H]12 (some centres undefined) | 5.71 | 
> 3000 | C=C1C(=O)O[C@H]2[C@H]1CC/C(CNS(=O)(=O)C(F)(F)F)=C\CC[C@@]1(C)O[C@@H]21 | 5.53 | 
660 | C=C1C(=O)O[C@H]2[C@H]1CC/C(COC(=O)N(CCC)CCC)=C\CC[C@@]1(C)O[C@@H]21 | 5.93 | 
812 | C=C1C(=O)O[C@H]2[C@H]1CC/C(COC(=O)NCCC)=C\CC[C@@]1(C)O[C@@H]21 | 5.90 | 
> 3000 | C=C1C(=O)O[C@H]2[C@H]1CC/C(COC)=C\CC[C@@]1(C)O[C@@H]21 | 5.63 | 
> 3000 | C=C1C(=O)O[C@H]2[C@H]1CC/C(COC(=O)NC)=C\CC[C@@]1(C)O[C@@H]21 | 5.59 | 
> 3000 | C=C1C(=O)O[C@H]2[C@H]1CC/C(CNS(C)(=O)=O)=C\CC[C@@]1(C)O[C@@H]21 | 5.50 | 
637 | C=C1C(=O)O[C@H]2[C@H]1CC/C(CNS(=O)(=O)c1ccccc1)=C\CC[C@@]1(C)O[C@@H]21 | 5.92 | 
